Experimental findings from patent US20240207258A1, “HETEROCYCLIC PDK1 INHIBITORS FOR USE TO TREAT CANCER” (Viracta Therapeutics, Inc., priority 2015, published 2024) are described below.

Assay [1] relates to RPMI-8226. Description: MTS cell proliferation assay, RPMI-8226. The note with it: Homo sapiens; RPMI-8226, 72 hr. It counts as cell-based. On the procedure:
(§1) Cell proliferation was measured using the CellTiter 96 Aqueous Non-Radioactive Cell Proliferation Assay (Promega). The CellTiter 96® AQueous Assay is composed of solutions of a tetrazolium compound [3-(4,5-dimethylthiazol-2-yl)-5-(3-carboxymethoxyphenyl)-2-(4-sulfophenyl)-2H-tetrazolium, inner salt; MTS] and an electron coupling reagent (phenazine methosulfate) PMS. MTS is bioreduced by cells into a formazan product that is soluble in tissue culture medium. The absorbance of the formazan product at 490 nm can be measured directly from assay plates without additional processing. The quantity of formazan product as measured by the amount of 490 nm absorbance is directly proportional to the number of living cells in culture. Cells were seeded into 96-well or 384-well clear plates in a volume of 200 μL (96-well) or 50 μL (384-well) at optimized densities ranging from 1,000 to 40,000 cells per well for 96-well plates or 1,200 to 25,000 cells per well for 384-well plates depending on cell-line. After 4-6 hr recovery, serially diluted compounds in DMSO were added to the cells using (0.1% v/v final DMSO concentration). Cells were then grown at 37° C. in a humidified incubator with 5% CO2 for 72 hr. A 20:1 [3-(4,5-dimethylthiazol-2-yl)-5-(3-carboxymethoxyphenyl)-2-(4-sulfophenyl)-2H-tetrazolium](MTS):phenazine methosulfate (PMS) solution in DPBS was made immediately before use, added to each well, and cells were incubated for 1.5 hr at 37° C. The absorbance at 490 nm was then measured using a platereader. Absorbance values were normalized as percent of control (cells incubated in the presence of 0.1% v/v DMSO). Sigmoidal dose-response curves were plotted using log(inhibitor) vs. response—Variable slope (four parameters) model with a top value constrained to 100% (GraphPad Prism version 6.00 for Windows, GraphPad Software, La Jolla California USA). […] Curves for compounds that reached a plateau were matched exactly to the measurement points. […] To determine potential of compounds of the invention to affect viability of hematological cancers, cell lines representing various tumor types were selected and tested. Human cell lines tested were: MOLM-13 (acute myeloid leukemia (AML)), MV4-11 (AML), U-2932 (ABC-diffuse large B cell lymphoma), U-937 (histiocytic lymphoma), U-266 (multiple myeloma), RPMI-8226 (multiple myeloma), CMK (megakaryoblastic cell line), SU-DHL-4 (GCB-diffuse large B cell lymphoma), KG1 (AML), Mec-1 (chronic B-cell leukemia), MOLM-16 (AML), Jeko (B-cell lymphoma), WSU-DLCL2 (B-cell lymphoma), JJN3 (plasma cell leukemia), SU-DHL-6 (GCB-diffuse large B cell lymphoma), and Z-138 (mantle cell lymphoma). In addition, two murine cell lines were tested: A20 […].
Background: Tetrazolium dyes change colour on reduction, which living cells bring about.

In assay [2] the test system is A20. As to the kind of experiment: MTS cell proliferation assay, A20. It counts as cell-based, murine. The note with it: Mus musculus; A20, 72 hr. The protocol:
as §1

For assay [3], the system named is hematologic tumor cell lines. Description: MTS cell proliferation assay, panel of hematologic cancer cell lines. The class given is cell-based. The conditions noted are these: range over 16 cell lines, FIG. 3; read-out: potency in the cell proliferation assay (EC50). On the procedure:
as §1

Assay [4] deals with U-2932. Description: MTS cell proliferation assay, U-2932. It counts as cell-based. The note with it: Homo sapiens, U2932; U-2932, 72 hr. The protocol:
as §1

Assay [5] concerns C1498. As to the kind of experiment: MTS cell proliferation assay, C1498. The class given is cell-based, murine. The protocol:
(§2) Cell proliferation was measured using the CellTiter 96 Aqueous Non-Radioactive Cell Proliferation Assay (Promega). […] MTS is bioreduced by cells into a formazan product that is soluble in tissue culture medium. The absorbance of the formazan product at 490 nm can be measured directly from assay plates without additional processing. The quantity of formazan product as measured by the amount of 490 nm absorbance is directly proportional to the number of living cells in culture. Cells were seeded into 96-well or 384-well clear plates in a volume of 200 μL (96-well) or 50 μL (384-well) at optimized densities ranging from 1,000 to 40,000 cells per well for 96-well plates or 1,200 to 25,000 cells per well for 384-well plates depending on cell-line. After 4-6 hr recovery, serially diluted compounds in DMSO were added to the cells using (0.1% v/v final DMSO concentration). Cells were then grown at 37° C. in a humidified incubator with 5% CO2 for 72 hr. A 20:1 [3-(4,5-dimethylthiazol-2-yl)-5-(3-carboxymethoxyphenyl)-2-(4-sulfophenyl)-2H-tetrazolium](MTS):phenazine methosulfate (PMS) solution in DPBS was made immediately before use, added to each well, and cells were incubated for 1.5 hr at 37° C. The absorbance at 490 nm was then measured using a platereader. Absorbance values were normalized as percent of control (cells incubated in the presence of 0.1% v/v DMSO). Sigmoidal dose-response curves were plotted using log(inhibitor) vs. response—Variable slope (four parameters) model with a top value constrained to 100% (GraphPad Prism version 6.00 for Windows, GraphPad Software, La Jolla California USA). […] To determine potential of compounds of the invention to affect viability of hematological cancers, cell lines representing various tumor types were selected and tested. […] In addition, two murine cell lines were tested: A20 […].

The test system of assay [6] is Molm-13. As to the kind of experiment: MTS cell proliferation assay, Molm-13. The class given is cell-based. The note with it: Homo sapiens; Molm-13, 72 hr. On the procedure:
as §1

Assay [7] deals with P-PDK1. As to the kind of experiment: Western blot, PDK1 phosphorylation in C1498 cells. The class given is cell-based, murine. The conditions noted are these: C1498. The protocol:
(§3) For phosphoprotein analyses, cells were seeded into 10 cm petri dishes (10×10^6 cells/dish) in media supplemented with 10% FBS and penicillin/streptomycin. After cells recovered for 1 hr at 37° C., compounds were added in DMSO (0.1% final) and incubated for 4 or 24 hr at 37° C. Cells were then harvested by centrifugation and washed with cold PBS. Cell pellets were resuspended in cell extraction buffer (Invitrogen) supplemented with 2×Halt™ protease and phosphatase inhibitor cocktail (Thermo Scientific), 2 mM sodium orthovanadate, 10 mM EDTA and 4 mM PMSF. Samples were lysed by sonication and incubated on ice for 30 min. Cell debris was removed by centrifugation and protein concentrations were determined using the BCA Protein Assay Kit (Pierce). The clarified lysate was diluted in LDS sample buffer with reducing agent (Life Technologies). […] Gels were run at 110 V and proteins were transferred to a PVDF membrane. Membranes were blocked in TBS blocking buffer (Li-Cor Biosciences) for 1 hr. Primary antibodies (Cell Signaling, Sant Cruz Biotechnology) were added (1:1,000 dilution) in blocking buffer with 0.1% Tween-20 and 1:20,000 dilution of β-actin antibody and incubated for 14 hr at 4° C. […] Bands were quantitated using ImageJ.
On the technique in general: Immunoblotting shows a protein as a band on a membrane.

The subject of assay [8] is P-RSK2. As to the kind of experiment: Western blot, RSK2 phosphorylation in C1498 cells. The note with it: C1498. It counts as cell-based, murine. On the procedure: as §3
Assay [9] deals with MV4-11. As to the kind of experiment: MTS cell proliferation assay, MV4-11. The class given is cell-based, human. The protocol:
as §2

Assay [10] concerns Jeko. As to the kind of experiment: MTS cell proliferation assay, Jeko. The conditions noted are these: Homo sapiens, 72 hr. The class given is cell-based. On the procedure:
as §1

Assay [11] concerns P-AKT. As to the kind of experiment: Western blot, AKT phosphorylation in A20 cells. The class given is cell-based, murine. On the procedure:
For phosphoprotein analyses, cells were seeded into 10 cm petri dishes (10×10^6 cells/dish) in media supplemented with 10% FBS and penicillin/streptomycin. After cells recovered for 1 hr at 37° C., compounds were added in DMSO (0.1% final) and incubated for 4 or 24 hr at 37° C. Cells were then harvested by centrifugation and washed with cold PBS. Cell pellets were resuspended in cell extraction buffer (Invitrogen) supplemented with 2×Halt™ protease and phosphatase inhibitor cocktail (Thermo Scientific), 2 mM sodium orthovanadate, 10 mM EDTA and 4 mM PMSF. Samples were lysed by sonication and incubated on ice for 30 min. Cell debris was removed by centrifugation and protein concentrations were determined using the BCA Protein Assay Kit (Pierce). The clarified lysate was diluted in LDS sample buffer with reducing agent (Life Technologies). […] Gels were run at 110 V and proteins were transferred to a PVDF membrane. Membranes were blocked in TBS blocking buffer (Li-Cor Biosciences) for 1 hr. Primary antibodies (Cell Signaling, Sant Cruz Biotechnology) were added (1:1,000 dilution) in blocking buffer with 0.1% Tween-20 and 1:20,000 dilution of β-actin antibody and incubated for 14 hr at 4° C. Blots were washed in TBS-T. Label-conjugated goat anti-rabbit secondary antibody (IRdye® 800CW; Li-Cor Biosciences) was added in blocking buffer with 0.1% Tween-20 and 0.02% SDS and incubated for 1 hr. After washing in TBS-T followed by TBS, membranes were scanned on an Odyssey imaging system (Li-Cor Biosciences). Bands were quantitated using ImageJ.

On to `NC1(c2ccc(-c3nc4ccn5c(=O)[nH]nc5c4cc3-c3ccccc3)cc2)CCC1` [MK-2206, reference compound], for which the EC50 in [1] was 906 nM; in assay [2], 138 nM; in assay [3], 100 to 10700 nM; in [4], 4880 nM; in [5] (Mus musculus, C1498, 72 hr, read-out: MTS proliferation assay), 812 nM; in [6], 1370 nM. The EC50 worked out at 1300 nM in [9] (Homo sapiens, MV4-11, 72 hr, read-out: MTS proliferation assay) and 980 nM in assay [10]. In addition, the “plateau of growth inhibition curve” value in assay [5] (C1498) and in assay [9] (MV4-11) was “do not reach a plateau below 20%” throughout. The “effect on PDK1 phosphorylation” value in assay [7] is on record as “appears to enhance”. In addition, the “effect on RSK2 phosphorylation” value in [8] is “appears to enhance”. In addition, the “P-AKT levels” value in assay [11] is on record as “sensitive”.
